Where a name gives a salt, the structure may show the parent alone.
What follows are compounds tested against T1, human NaV1.8 (hNaV1.8) ion channel (Homo sapiens, UniProt Q9Y5Y9) (assay: Inhibition of Human NaV1.8 stably expressed in SH-SY-5Y cells (membrane potential dye fluorescence assay)). Settings: SH-SY-5Y cells stably expressing hNaV1.8; FLIPR membrane potential dye; 10 μM pyrethroid, 250 nM TTX; test range 100 μM-0.05 μM; read-out: hNav1.8 IC50.
T1 construct: expressed in transfected cells
Type: cell-based
Experimental: Inhibition of Human NaV1.8 stably expressed in SH-SY-5Y cells
A SH-SY-5Y neuroblastoma cell line stably expressing the human NaV1.8 (hNaV1.8) ion channel was constructed. This cell line has been used to develop a medium to high throughput assay for determining the ability of test compounds to inhibit membrane depolarisation mediated via the hNaV1.8 channel.
SH-SY-5Y hNaV1.8 are grown in adherent monolayer culture using 50:50 Ham's F-12/EMEM tissue culture medium supplemented with 15% (v/v) foetal bovine serum; 2 mM L-glutamine, 1% NEAA and 600 μg·ml^−1 Geneticin sulphate. Cells are removed from the tissue culture flask using trypsin/EDTA and re-plated into black walled, clear bottom 96-well assay plates at 50,000 cells·well^−1 24 hours prior to assay.
On the day of assay the cell assay plates are washed to remove cell culture medium using a sodium free assay buffer (145 mM tetramethyl ammonium chloride; 2 mM calcium chloride; 0.8 mM magnesium chloride hexahydrate; 10 mM HEPES; 10 mM glucose; 5 mM potassium chloride, pH 7.4). Fluorescent membrane potential dye solution (FLIPR™ membrane potential dye, Molecular Devices Corporation), containing 10 μM of a pyrethroid to prevent channel inactivation and 250 nM tetrodotoxin (TTX) to reduce interference from TTX-sensitive sodium channels present in the cell line. Test compound, initially dissolved in dimethyl sulfoxide but further diluted in sodium free buffer, is added to achieve the final test concentration range of 100 μM-0.05 μM.
Cell plates are incubated for 30 minutes at room temperature to allow equilibration of dye and test compound. Plates are then transferred to a fluorescence plate reader for fluorescence measurement using an excitation wavelength of 530 nm whilst measuring fluorescence emission at 565 nm. […] Membrane depolarisation is registered by an increase in fluorescence emission at 565 nm.
The change in fluorescence seen in each test well upon the addition of sodium containing buffer is calculated relative to the baseline fluorescence for that well. This figure is then used for calculating the IC50 for each test compound.

T1 sequence (Q9Y5Y9 whole entry): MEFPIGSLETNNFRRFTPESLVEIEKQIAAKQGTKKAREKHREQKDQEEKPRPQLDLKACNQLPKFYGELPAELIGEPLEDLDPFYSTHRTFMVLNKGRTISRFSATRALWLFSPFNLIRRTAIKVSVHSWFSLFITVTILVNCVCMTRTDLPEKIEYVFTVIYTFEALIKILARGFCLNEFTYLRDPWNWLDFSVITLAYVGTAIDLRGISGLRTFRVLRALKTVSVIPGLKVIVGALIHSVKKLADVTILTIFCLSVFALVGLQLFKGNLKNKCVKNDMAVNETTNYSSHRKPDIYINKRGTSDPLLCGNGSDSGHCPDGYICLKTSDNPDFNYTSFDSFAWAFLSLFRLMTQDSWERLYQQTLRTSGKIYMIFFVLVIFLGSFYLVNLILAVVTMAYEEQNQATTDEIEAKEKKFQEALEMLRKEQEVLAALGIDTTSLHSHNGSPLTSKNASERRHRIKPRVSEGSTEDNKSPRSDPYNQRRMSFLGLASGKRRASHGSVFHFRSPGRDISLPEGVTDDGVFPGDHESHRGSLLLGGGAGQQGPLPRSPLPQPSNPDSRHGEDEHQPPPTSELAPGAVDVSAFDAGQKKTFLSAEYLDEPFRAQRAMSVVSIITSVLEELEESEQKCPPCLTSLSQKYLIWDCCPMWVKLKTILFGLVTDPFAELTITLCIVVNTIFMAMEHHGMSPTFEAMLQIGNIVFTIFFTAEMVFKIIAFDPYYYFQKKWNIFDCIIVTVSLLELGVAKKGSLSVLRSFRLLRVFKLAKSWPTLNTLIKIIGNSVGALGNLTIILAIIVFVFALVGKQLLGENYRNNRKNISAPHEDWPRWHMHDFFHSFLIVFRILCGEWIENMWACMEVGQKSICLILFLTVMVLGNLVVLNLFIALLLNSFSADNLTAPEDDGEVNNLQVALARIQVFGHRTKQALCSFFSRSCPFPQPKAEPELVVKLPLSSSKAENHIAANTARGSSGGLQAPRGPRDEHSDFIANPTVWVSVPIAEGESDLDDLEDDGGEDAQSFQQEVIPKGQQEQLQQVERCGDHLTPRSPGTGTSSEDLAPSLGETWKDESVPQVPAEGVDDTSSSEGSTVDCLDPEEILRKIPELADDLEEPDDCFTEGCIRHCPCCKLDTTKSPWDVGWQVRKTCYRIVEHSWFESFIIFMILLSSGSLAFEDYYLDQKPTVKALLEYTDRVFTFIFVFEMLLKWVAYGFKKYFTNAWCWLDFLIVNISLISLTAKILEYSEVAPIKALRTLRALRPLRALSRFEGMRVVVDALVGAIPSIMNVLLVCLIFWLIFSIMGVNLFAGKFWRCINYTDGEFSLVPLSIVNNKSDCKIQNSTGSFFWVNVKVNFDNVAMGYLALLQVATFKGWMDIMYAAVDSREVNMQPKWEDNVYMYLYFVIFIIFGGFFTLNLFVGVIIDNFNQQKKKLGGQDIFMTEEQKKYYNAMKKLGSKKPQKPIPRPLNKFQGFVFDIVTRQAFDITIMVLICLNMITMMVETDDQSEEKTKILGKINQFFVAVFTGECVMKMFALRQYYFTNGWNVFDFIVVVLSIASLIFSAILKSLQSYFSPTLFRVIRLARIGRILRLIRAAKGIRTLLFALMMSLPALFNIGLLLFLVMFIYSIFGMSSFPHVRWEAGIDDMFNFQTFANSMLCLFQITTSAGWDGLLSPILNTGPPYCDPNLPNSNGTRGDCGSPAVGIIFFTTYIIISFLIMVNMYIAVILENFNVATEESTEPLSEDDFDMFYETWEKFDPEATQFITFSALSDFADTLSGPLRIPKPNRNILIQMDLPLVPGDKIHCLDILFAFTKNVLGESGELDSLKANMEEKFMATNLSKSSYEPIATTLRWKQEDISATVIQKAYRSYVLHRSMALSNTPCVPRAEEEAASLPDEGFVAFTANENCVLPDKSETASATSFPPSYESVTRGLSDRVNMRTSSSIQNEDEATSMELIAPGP

Question: `CCCCOc1ccc(NC(=O)N2CC(NC(C)c3ccc(F)cc3)C2)cc1` (stereo not shown) [Example 66, 3-[1-(4-Fluoro-phenyl)-ethylamino]-azetidine-1-carboxylic acid (4-butoxy-phenyl)-amide] was tested. Which IC50 did it give?
Answer: 2270 nM

Question: Which IC50 does the source give for `CC1(NC2CCc3cc(F)ccc32)CN(C(=O)Nc2ccc(Oc3ccc(F)cc3)cc2)C1` (stereo not shown) [Example 41, 3-(5-Fluoro-indan-1-ylamino)-3-methyl-azetidine-1-carboxylic acid [4-(4-fluoro-phenoxy)-phenyl]-amide] here?
Answer: 560 nM

Question: For `Cc1cc(F)ccc1C(C)NC1CN(C(=O)Nc2ccc(Oc3ccc(F)cc3)cc2)C1` (stereo not shown) [Example 119, 3-[1-(4-Fluoro-2-methyl-phenyl)-ethylamino]-azetidine-1-carboxylic acid [4-(4-fluoro-phenoxy)-phenyl]-amide], which IC50 is on record?
Answer: 460 nM

Question: For `O=C(Nc1ccc(Oc2ccc(F)cc2)c(F)c1)N1CC(NC2CCc3cc(Cl)ccc32)C1` (stereo not shown) [Example 15, 3-(5-Chloro-indan-1-ylamino)-azetidine-1-carboxylic acid [3-fluoro-4-(4-fluoro-phenoxy)-phenyl]-amide], which IC50 is on record?
Answer: 650 nM

Question: With `CC(NC1CN(C(=O)Nc2ccc(Oc3ccc(F)cc3)cc2)C1)c1c(F)cccc1F` (stereo not shown) [Example 131, 3-[1-(2,6-Difluoro-phenyl)-ethylamino]-azetidine-1-carboxylic acid [4-(4-fluoro-phenoxy)-phenyl]-amide] as the compound, how does the IC50 read?
Answer: 530 nM

Question: `CC(c1ccc(F)cc1Cl)N(C)C1CN(C(=O)Nc2cccc(Oc3ccccc3)c2)C1` (stereo not shown) [Example 100, 3-{[1-(2-Chloro-4-fluoro-phenyl)-ethyl]-methyl-amino}-azetidine-1-carboxylic acid (3-phenoxy-phenyl)-amide] was tested. Which IC50 did it give?
Answer: 1210 nM

Question: For `O=C(Nc1ccc(Oc2ccc(F)cc2)nc1)N1CC(NC2CCc3cc(F)ccc32)C1` (stereo not shown) [Example 135, 3-(5-Fluoro-indan-1-ylamino)-azetidine-1-carboxylic acid [6-(4-fluoro-phenoxy)-pyridin-3-yl]-amide methanesulfonate salt], which IC50 is on record?
Answer: 2170 nM

Question: How did the IC50 turn out when `Cc1ccccc1C(C)N(C)C1CN(C(=O)Nc2ccc(C(F)(F)F)cc2)C1` (stereo not shown) [Example 110, 3-[Methyl-(1-o-tolyl-ethyl)-amino]-azetidine-1-carboxylic acid (4-trifluoromethyl-phenyl)-amide] was run?
Answer: 2240 nM

Question: With `O=C(Nc1cccc(Oc2ccccc2)c1)N1CC(NC2CCc3cc(F)ccc32)C1` (stereo not shown) [Example 28, 3-(5-Fluoro-indan-1-ylamino)-azetidine-1-carboxylic acid (3-phenoxy-phenyl)-amide] as the compound, how does the IC50 read?
Answer: 430 nM

Question: For `O=C(Nc1ccc(Oc2ccc(F)cc2)c(F)c1)N1CC(NC2CCc3cc(F)ccc32)C1` (stereo not shown) [Example 11, 3-(5-Fluoro-indan-1-ylamino)-azetidine-1-carboxylic acid [3-fluoro-4-(4-fluoro-phenoxy)-phenyl]-amide], which IC50 is on record?
Answer: 460 nM

Question: `O=C(Nc1ccc(Oc2ccc(F)cc2)cc1)N1CC(NC2CCc3cc(Br)ccc32)C1` (stereo not shown) [Example 17, 3-(5-Bromo-indan-1-ylamino)-azetidine-1-carboxylic acid [4-(4-fluoro-phenoxy)-phenyl]-amide] was tested. Which IC50 did it give?
Answer: 540 nM

Question: How did the IC50 turn out when `CC(NC1CN(C(=O)Nc2ccc(C(F)(F)F)cc2)C1)c1ccc(F)cc1` (stereo not shown) [Example 56, 3-[1-(4-Fluoro-phenyl)-ethylamino]-azetidine-1-carboxylic acid (4-trifluoromethyl-phenyl)-amide] was run?
Answer: 3280 nM

Question: How did the IC50 turn out when `O=C(c1ccc(Oc2ccc(F)cc2)cc1)N1CC(NC2CCc3cc(F)ccc32)C1` (stereo not shown) [Example 43, [3-(5-Fluoro-indan-1-ylamino)-azetidin-1-yl]-[4-(4-fluoro-phenoxy)-phenyl]-methanone] was run?
Answer: 240 nM

Question: `CN(C(=O)N1CC(NC2CCc3cc(F)ccc32)C1)c1ccc(Oc2ccc(F)cc2)cc1` (stereo not shown) [Example 20, 3-(5-Fluoro-indan-1-ylamino)-azetidine-1-carboxylic acid [4-(4-fluoro-phenoxy)-phenyl]-methyl-amide] was tested. Which IC50 did it give?
Answer: 700 nM

Question: With `O=C(Nc1ccc(C(F)(F)F)cc1)N1CC(NC2CCc3cc(O)ccc32)C1` (stereo not shown) [Example 33, 3-(5-Hydroxy-indan-1-ylamino)-azetidine-1-carboxylic acid (4-trifluoromethyl-phenyl)-amide] as the compound, how does the IC50 read?
Answer: 11500 nM

Question: Which IC50 does the source give for `CC(NC1CN(C(=O)Nc2cccc(C(F)(F)F)c2)C1)c1ccccc1Cl` (stereo not shown) [Example 74, 3-[1-(2-Chloro-phenyl)-ethylamino]-azetidine-1-carboxylic acid (3-trifluoromethyl-phenyl)-amide] here?
Answer: 2860 nM

Question: With `CC(NC1CN(C(=O)Nc2ccc(Oc3ccccc3)cc2)C1)c1ccccc1Cl` (stereo not shown) [Example 63, 3-[1-(2-Chloro-phenyl)-ethylamino]-azetidine-1-carboxylic acid (4-phenoxy-phenyl)-amide] as the compound, how does the IC50 read?
Answer: 630 nM

Question: How did the IC50 turn out when `CC(NC1CN(C(=O)Nc2ccc(Oc3ccccc3)cc2)C1)c1ccccc1C(F)(F)F` (stereo not shown) [Example 88, 3-[1-(2-Trifluoromethyl-phenyl)-ethylamino]-azetidine-1-carboxylic acid (4-phenoxy-phenyl)-amide] was run?
Answer: 1180 nM

Question: Which IC50 does the source give for `CN(C1CN(C(=O)Nc2ccc(Oc3ccccc3)cc2)C1)C(C)(C)c1ccccc1` [Example 99, 3-[Methyl-(1-methyl-1-phenyl-ethyl)-amino]-azetidine-1-carboxylic acid (4-phenoxy-phenyl)-amide] here?
Answer: 630 nM

Question: With `CC1CC(NC2CN(C(=O)Nc3ccc(Oc4ccccc4)cc3)C2)c2ccccc21` (stereo not shown) [Example 26, 3-(3-Methyl-indan-1-ylamino)-azetidine-1-carboxylic acid (4-phenoxy-phenyl)-amide] as the compound, how does the IC50 read?
Answer: 240 nM

Question: For `CC(NC1CN(C(=O)c2ccc(Oc3ccccc3)cc2)C1)c1ccccc1` (stereo not shown) [Example 44, (4-Phenoxy-phenyl)-[3-(1-phenyl-ethylamino)-azetidin-1-yl]-methanone], which IC50 is on record?
Answer: 730 nM

Question: With `O=C(Cc1ccc(Oc2ccccc2)cc1)N1CC(NC2CCc3cc(F)ccc32)C1` (stereo not shown) [Example 47, 1-[3-(5-Fluoro-indan-1-ylamino)-azetidin-1-yl]-2-(4-phenoxy-phenyl)-ethanone] as the compound, how does the IC50 read?
Answer: 1660 nM

Question: For `CC(c1ccc(F)cc1)N(C)C1CN(C(=O)Nc2cccc(C(F)(F)F)c2F)C1` (stereo not shown) [Example 84, 3-{[1-(4-Fluoro-phenyl)-ethyl]-methyl-amino}-azetidine-1-carboxylic acid (2-fluoro-3-trifluoromethyl-phenyl)-amide], which IC50 is on record?
Answer: 5800 nM

Question: For `CC(c1ccc(F)cc1Cl)N(C(=O)C(F)(F)F)C1CN(C(=O)Nc2ccc(Oc3ccccc3)cc2)C1` (stereo not shown) [Example 92, 3-[[1-(2-Chloro-4-fluoro-phenyl)-ethyl]-(2,2,2-trifluoro-acetyl)-amino]-azetidine-1-carboxylic acid (4-phenoxy-phenyl)-amide], which IC50 is on record?
Answer: 15100 nM

Question: With `O=C(Nc1ccc(Oc2ccccc2F)cc1)N1CC(NC2CCc3cc(Cl)ccc32)C1` (stereo not shown) [Example 133, 3-(5-Chloro-indan-1-ylamino)-azetidine-1-carboxylic acid [4-(2-fluoro-phenoxy)-phenyl]-amide] as the compound, how does the IC50 read?
Answer: 1550 nM

Question: For `CCCCOc1cccc(NC(=O)N2CC(N(C)C(C)c3ccc(F)cc3)C2)c1` (stereo not shown) [Example 85, 3-{[1-(4-Fluoro-phenyl)-ethyl]-methyl-amino}-azetidine-1-carboxylic acid (3-butoxy-phenyl)-amide], which IC50 is on record?
Answer: 1460 nM

Question: `O=C(Nc1ccc(C(F)(F)F)cc1)N1CC(NC2CCc3cc(F)ccc32)C1` (stereo not shown) [Example 22, 3-(5-Fluoro-indan-1-ylamino)-azetidine-1-carboxylic acid (4-trifluoromethyl-phenyl)-amide] was tested. Which IC50 did it give?
Answer: 3110 nM

Question: With `CC(NC1CN(C(=O)Nc2ccc(Oc3ccccc3)cc2)C1)c1ccc(N2CCCCC2)cc1` (stereo not shown) [Example 120, 3-[1-(4-Piperidin-1-yl-phenyl)-ethylamino]-azetidine-1-carboxylic acid (4-phenoxy-phenyl)-amide] as the compound, how does the IC50 read?
Answer: 590 nM

Question: How did the IC50 turn out when `O=C(Nc1ccc(Oc2ccc(F)cc2)cc1)N1CC(NC2CCc3cc(F)ccc3C2)C1` (stereo not shown) [Example 8, 3-(6-Fluoro-1,2,3,4-tetrahydro-naphthalen-2-ylamino)-azetidine-1-carboxylic acid [4-(4-fluoro-phenoxy)-phenyl]-amide] was run?
Answer: 310 nM

Question: `CC(NC(=O)N1CC(NC2CCc3cc(F)ccc3C2)C1)c1ccc(C(F)(F)F)cc1` (stereo not shown) [Example 5, 3-(6-Fluoro-1,2,3,4-tetrahydro-naphthalen-2-ylamino)-azetidine-1-carboxylic acid [1-(4-trifluoromethyl-phenyl)-ethyl]-amide] was tested. Which IC50 did it give?
Answer: 1740 nM

Same assay, conditions: hNav1.8 IC50, SH-SY-5Y cells stably expressing hNaV1.8; FLIPR membrane potential dye; 10 μM pyrethroid, 250 nM TTX; test range 100 μM-0.05 μM

Question: With `Cc1ccccc1CC(C)NC1CN(C(=O)NC(C)c2ccc(C(F)(F)F)cc2)C1` (stereo not shown) [Example 1, 3-(1-Methyl-2-o-tolyl-ethylamino)-azetidine-1-carboxylic acid [1-(4-trifluoromethyl-phenyl)-ethyl]-amide] as the compound, how does the IC50 read?
Answer: 1300 nM

Source: US20100105651A1, “ANTAGONISTS OF SNS SODIUM CHANNELS” (priority 2005, published 2010)
